Columns and labels:
[1] = system: λ phage cDNA library; assay: Preparation of a λ phage cDNA library, titer from plaques; details: samples prepared under trehalose (+) 0.6 M vs trehalose (−)
Protocol: Double-stranded cDNA/RNA hybrid samples that had been immobilized on streptoavidin beads and synthesized under trehalose (+) and trehalose (−) conditions were employed to prepare a λ phage cDNA library. Following synthesis of double-stranded cDNA, the beads were washed with blunting buffer (T4 DNA polymerase buffer). Blunting reaction solution (1× T4 DNA polymerase buffer, 0.6 M trehalose, 0.1 mM dNTP mix, T4 DNA polymerase 5 units) was added and the mixture was incubated for 20 minutes at 12° C. Following the reaction, the beads were washed three times with 0.1× TE, and then washed one more time with 1× ligation buffer. Ligation reaction solution (1× T4 DNA ligation buffer, 0.6 M trehalose, 5′ end BamHI overhang adapter 2 ug, T4 DNA ligase 800 units) was added and the mixture was reacted overnight at 16° C. The beads were washed three times with 0.1× TE and then washed once with 1× XhoI. Restriction enzyme XhoI reaction solution (1× XhoI buffer, 0.6 M trehalose, XhoI 40 units) was added and the mixture was incubated for three hours at 37° C. The beads were recovered with a magnetic stand and the supernatant containing the cDNA that had been released by XhoI cutting was separated. […] A 10 uL quantity and a 100 uL quantity were admixed to the C600/MgSO4 suspensions to infect them with phage. […] The plaques that appeared were counted and the titer was calculated (Scheme 3).

[2] = State of streptavidin bead reaction solution during enzymatic reaction; format: physicochemical; details: 0.6 M additive; extended / three hours restriction enzyme reaction
From the text: Thus, with no nonuniformity in enzymatic activity, the various enzymatic reactions were promoted and the quantity of target DNA recovered increased.
This was attributed to characteristics such as the viscosity and diffusing effect of trehalose or sorbitol.

[3] = system: DNA polymerase; assay: Solexa sequencing system, cluster amplification reaction on DNA-immobilized chip; format: biochemical; details: for num of CAGE tag / num of sequence read: trehalose 0.6 M in cluster amplification
Protocol: The Solexa sequencing system incorporates the steps of adsorbing, immobilizing, and amplifying a DNA template on a flat chip. An examination was conducted to see how the sequence analysis level would change due to the addition of trehalose in the template amplification reaction of the Solexa sequencing system.
In the process of the Solexa sequencing system, attention was focused on the cluster amplification reaction conducted on a DNA-immobilized chip. In this reaction, DNA immobilized on the chip was amplified with DNA polymerase to obtain identical fragments referred to as a cluster (Scheme 9). Amplification was conducted by adding trehalose to the reaction solution to a final concentration of 0.6 M, and a comparison was made with the results obtained when no trehalose was added (FIG. 10). The sample employed here was a 27 by DNA fragment that had been prepared by the CAGE method (obtained by cleaving just 27 by off of the 5′ end of cDNA).
In the same manner as in 10 above, trehalose was added to a final concentration of 0.3 M to a reaction solution and amplification was conducted in a Solexa sequencing system. The results were compared to those obtained when no trehalose was added. The samples employed, prepared by the CAGE method (obtained by cleaving just 27 by off the 5′ end of the cDNA), were different 27 by DNA fragments than those in 10 above.

[4] = system: enzyme reaction solution in a Genome Analyzer system; assay: Sequencing reaction in a Solexa sequencing system (Genome Analyzer), PhiX control; format: biochemical; details: trehalose 0.15 M, 0.3 M
Protocol: D(+)-trehalose was added to the enzyme reaction solution in a Genome Analyzer system (GAI) and the results were measured. The experiment was conducted with the three D(+)-trehalose final concentrations of 0.15 M, 0.3 M, and 0.51 M. The ratio of the reduction in the average value obtained by dividing the fluorescence intensity calculated for each cycle by the number of clusters was employed for comparison.
The D(+)-trehalose employed was D(+)-trehalose (90208 BioChemika, ≧99.5% (HPLC) (Fluka). A 36-cycle Illumina Sequencing Kit (FC-204-2036) was employed for sequencing with a Genome Analyzer (Illumina). The sample employed was PhiX control (CT-901-1001).
The IMX36 (42 mL) in box 2 of the SBS Kit contained in the 36-Cycle SBS Reagent Kit v2 (IIlumina catalog #FC-204-2036) was melted, after which D(+)-trehalose was added in the quantities indicated in Table 3.
Following the addition, the mixture was shielded from light and gently mixed with top to bottom inversion for 10 minutes at room temperature. Once the dissolution had been visually confirmed, the mixture was passed through a filter (with a filter pore system of 0.22 micrometers). Precisely the required 42 mL was collected from the mixed solution following filtration. Subsequently, the operations specified in the manufacturer's protocol were conducted.

[5] = 0.3 M trehalose in cluster amplification vs none

OC[C@H]1O[C@H](O[C@H]2O[C@H](CO)[C@@H](O)[C@H](O)[C@H]2O)[C@H](O)[C@@H](O)[C@@H]1O [trehalose, D(+)-trehalose]
titer of the phage library [1]: clearly better results | uniformity of beads in the reaction solution [2]: maintaining better uniformity in the reaction solution | fluorescence intensity of each base in the CAGE samples [3, 5]: higher level of fluorescence intensity | sequence level [3, 5]: increased | length of the sequence that was determined ([3]; 0.6 M trehalose vs none): increased | regions prepared by the CAGE method (CAGE tag) among DNA fragments analyzed ([3]; 0.6 M trehalose vs none): more regions prepared by the CAGE method (the CAGE tag) were contained | fluorescence intensity of each base ([3]; 0.6 M trehalose, data not shown): strongly displayed | num of CAGE tag ([3]; region s1): 196840 | num of sequence read ([3]; region s1): 252820 | num of CAGE tag ([3]; region s2): 421412 | num of sequence read ([3]; region s2): 523387 | num of CAGE tag ([3]; region s3): 540268 | num of sequence read ([3]; region s3): 648786 | num of CAGE tag ([3]; region s5): 317440 | num of sequence read ([3]; region s5): 392534 | num of CAGE tag ([3]; region s6): 627739 | num of sequence read ([3]; region s6): 728614 | num of CAGE tag ([3]; region s7): 798438 | num of sequence read ([3]; region s7): 904101 | num of CAGE tag ([3]; total of regions): 2902137 | num of sequence read ([3]; total of regions): 3450242 | difference in rate of reduction in fluorescence intensity, trehalose (+) vs trehalose (−) ([4]; 35th cycle, 0.51 M, PhiX control): ≥ 20% | PhiX control mapping rate ([4]; 0.51 M relative to trehalose (−)): overall significant difference

From patent US20110059869A1, “Method for Increasing Enzymatic Reactivity” (RIKEN, priority 2008, published 2011)
